Test results published in US5670498A, “8-substituted styryl xanthine derivatives” (Kyowa Hakko Kogyo Co., Ltd., priority 1992, dated 1997).

What was measured:
adenosine A2 receptor = target: T1, adenosine A2 receptor (Rattus norvegicus, UniProt P30543); assay: Adenosine A2 Receptor Binding Test (3H-CGS 21680, rat corpus striatum)
T1 construct: Corpus striatum of a rat was suspended in ice-cooled 50 mM Tris; from tissue; host or cells: rat corpus striatum (washed membrane suspension)
Method: Adenosine Receptor Antagonistic Activity (Adenosine A2 Receptor Binding Test)
Corpus striatum of a rat was suspended in ice-cooled 50 mM Tris hydroxymethyl aminomethane hydrochloride (Tris HCl) buffer (pH 7.7) by using Polytron homogenizer (manufactured by Kinematicas Co.). The suspension was centrifuged (50,000×g, 10 minutes), and the precipitate was suspended again in the same amount of 50 mM Tris HCl buffer. The suspension was centrifuged under the same conditions, and the final precipitate was suspended once again in 50 mM Tris HCl buffer containing 10 mM magnesium chloride and 0.02 unit/mg tissue of adenosine deaminase (manufactured by Sigma Co.) to give a tissue concentration of 5 mg (wet weight)/ml.
To 1 ml of the tissue suspension thus prepared were added 50 μl of a mixture of N-ethylcarboxamidoadenosine labeled with tritium (^3 H-NECA: 26 Ci/mmol, manufactured by Amersham Co.) (final concentration: 3.8 nM) and cyclopentyladenosine (CPA, manufactured by Sigma Co.) (final concentration: 50 nM), and 50 μl of a test compound. The resulting mixture was allowed to stand at 25° C. for 120 minutes and then rapidly filtered by suction through a glass fiber filter (GF/C, manufactured by Whatman Co.). The filter was immediately washed three times with 5 ml each of ice-cooled 50 mM Tris HCl buffer, and transferred to a vial, and a scintillator (EX-H by Wako Pure Chemical Industries, Ltd.) was added thereto. The radioactivity on the filter was determined with a liquid scintillation counter (manufactured by Packard instrument Co.).
The similar procedure as above was repeated to determine the radioactivity bound to the A2 receptors using 50 μl of CGS 21680 labeled with tritium {^3 H-2-[p-(2-carboxyethyl)phenethylamino]-5'-(N-ethylcarboxamide)adenosine: 40 Ci/mmol, manufactured by New England Nuclear Co. [J. Pharmacol. Exp. Ther., 251, 888 (1989)]} (final concentration: 4.0 nM) in place of 50 μl of the mixture of N-ethylcarboxamidoadenosine labeled with tritium (^3 H-NECA: 26 Ci/mmol, manufactured by Amersham Co.) (final concentration: 3.8 nM) and cyclopentyladenosine (CPA, manufactured by Sigma Co.) (final concentration: 50 nM).
The inhibition rate of the test compound against the binding of A2 receptors (^3 H-CGS 21680 binding) was calculated by the following equation: [formula]
The Ki values shown in the table were calculated by the following equation: [formula]

[1] = test system: Clonidine-Induced Aggressive Behavior; assay: Effect on Clonidine-Induced Aggressive Behavior; type: in vivo, male ddY mice; conditions: 10 mg/kg po, clonidine 20 mg/kg ip
Method: Effect on Clonidine-Induced Aggressive Behavior The effect of a test compound on the aggressive behavior induced by intraperitoneal administration of clonidine was investigated [Eur. J. Pharmacol., 29, 374 (1968)]. The experiment was performed by using several groups of male ddY mice (weighing 20 to 25 g, Japan SLC), each group consisting of two mice. The test compound was suspended in injectable distilled water (Otsuka Pharmaceutical Co., Ltd.) containing Tween 80. Clonidine hydrochloride (Sigma Co.) was dissolved in physiological saline solution (Otsuka Pharmaceutical Co., Ltd.). The test compound suspension and the control suspension [injectable distilled water (Otsuka Pharmaceutical Co., Ltd.) containing Tween 80] were orally administered to separate groups of the mice (0.1 ml per 10 g of body weight). Sixty minutes after the oral administration of the test compound, clonidine hydrochloride (20 mg/kg) was intraperitoneally injected. The number of biting attacks during 30 minutes after clonidine treatment was counted. The effect of the compound was evaluated by comparing the average number of biting attacks of the test compound-administered groups with that of control groups (Student's t-test).

[2] = test system: Haloperidol-Induced Catalepsy; assay: Effect on Haloperidol-Induced Catalepsy; type: in vivo, male ddY mice; conditions: 10 mg/kg po
Method: Effect on Haloperidol-Induced Catalepsy Parkinson's disease is a clinical syndrome caused by degeneration of nigrostriatal dopaminergic neurons. […] The experiment was performed by using several groups of 5-weeks-old male ddY mice (weighing 22 to 24 g, Japan SLC), each group consisting of 5 mice. Haloperidol (Janssen Pharmaceutica) suspended in 0.3% CMC was intraperitoneally administered to each mouse at a dose of 1.0 mg/kg. Test compounds were suspended in injectable distilled water (Otsuka Pharmaceutical Co., Ltd.) containing Tween 80 [polyoxyethylene (20) sorbitan monooleate]. L-DOPA (Kyowa Hakko Kogyo Co., Ltd.) and benserazide hydrochloride (Kyowa Hakko Kogyo Co., Ltd.) were suspended in 0.3% CMC. One hour after the haloperidol administration, the test compound suspensions and the control suspension [injectable distilled water (Otsuka Pharmaceutical Co., Ltd.) containing Tween 80] containing no test compound were orally administered to separate groups of the mice (0.1 ml per 10 g of body weight). One hour after the administration of the test compound, the forelimbs of each mouse and subsequently the hindlimbs of the same mouse were placed on a 4.5 cm-high, 1.0 cm-wide bar and catalepsy was estimated. […] The catalepsy score and the standard of judgment are shown below. […] The effect of the compounds was evaluated by the total of the catalepsy scores of five mice in each group (25 points at the full).

[3] = read-out: A2 Receptor Inhibition Rate

T1 sequence (P30543 whole entry): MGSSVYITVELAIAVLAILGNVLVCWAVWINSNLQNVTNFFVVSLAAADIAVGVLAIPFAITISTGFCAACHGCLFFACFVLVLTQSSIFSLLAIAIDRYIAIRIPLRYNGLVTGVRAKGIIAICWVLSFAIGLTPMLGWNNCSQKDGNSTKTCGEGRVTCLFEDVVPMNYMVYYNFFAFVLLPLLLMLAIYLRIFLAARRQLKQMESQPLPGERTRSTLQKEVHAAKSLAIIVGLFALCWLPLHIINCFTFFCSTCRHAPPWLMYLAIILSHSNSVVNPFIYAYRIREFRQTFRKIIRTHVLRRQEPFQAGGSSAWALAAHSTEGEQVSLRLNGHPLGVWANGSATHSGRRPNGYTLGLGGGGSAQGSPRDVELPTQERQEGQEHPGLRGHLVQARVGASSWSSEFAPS

Structure (SMILES): CCn1c(=O)c2c(nc(/C=C/c3cccc(C(C)=O)c3)n2C)n(CC)c1=O [Compound 24, (E)-8-(3-Acetylstyryl)-1,3-diethyl-7-methylxanthine]
- Ki (adenosine A2 receptor; [3H]CGS 21680 (inhibition rates of the same line marked *)): 13 nM
- inhibition at 0.1 µM (adenosine A2 receptor; [3]): 85%
- inhibition at 1 µM (adenosine A2 receptor; [3]): 99%
- Number of the Attacks of Test Compound-Treated Group/Number of the Attacks of Control Group [1]: 5.3
- Number of the Biting Attacks (mean ± S.E.M.), Test Compound-Treated Group ([1]; 30 minutes, control 6.3 ± 2.09, p < 0.05): 33.1 ± 7.16
- Total Score (catalepsy) ([2]; sum of five mice, 25 points at the full, control 25): 7
- inhibition in vivo at 10 mg/kg ([2]; Mus musculus, decrease in total score based on control group, read-out: Remission Rate): 72%
